Measurements as given in ChEMBL document CHEMBL1697781, “Assessment of the health effects of chemicals in humans: II. Construction of an adverse effects database for QSAR modeling” (Curr Drug Discov Technol, 2004).

Legend:
Conditions in all cases: human; call rule not given here
Hepatotoxicity [1] = assay: FDA HLAED, liver enzyme composite activity
Hepatotoxicity [2] = assay: FDA HLAED, alkaline phosphatase increase
Hepatotoxicity [3] = assay: FDA HLAED, serum glutamic oxaloacetic transaminase (SGOT) increase
Hepatotoxicity [4] = assay: FDA HLAED, serum glutamic pyruvic transaminase (SGPT) increase
Hepatotoxicity [5] = assay: FDA HLAED, lactate dehydrogenase (LDH) increase
Hepatotoxicity [6] = assay: FDA HLAED, gamma-glutamyl transferase (GGT) increase
Throughout, for GGT Increase - Index Value: reference of the scale not given here.
Throughout, for LDH Increase - Index Value: reference of the scale not given here.

| SMILES | Composite Activity - Active (Hepatotoxicity [1]) | Composite Activity - Marginal (Hepatotoxicity [1]) | Composite Activity - Score (Hepatotoxicity [1]) | Alkaline Phosphatase Increase - Activity Score (Hepatotoxicity [2]) | Alkaline Phosphatase Increase - Index Value (Hepatotoxicity [2]) | Alkaline Phosphatase Increase - Number of Reports (Hepatotoxicity [2]) | SGOT Increase - Activity Score (Hepatotoxicity [3]) | SGOT Increase - Index Value (Hepatotoxicity [3]) | SGOT Increase - Number of Reports (Hepatotoxicity [3]) | SGPT Increase - Activity Score (Hepatotoxicity [4]) | SGPT Increase - Index Value (Hepatotoxicity [4]) | SGPT Increase - Number of Reports (Hepatotoxicity [4]) | LDH Increase - Activity Score (Hepatotoxicity [5]) | LDH Increase - Index Value (Hepatotoxicity [5]) | LDH Increase - Number of Reports (Hepatotoxicity [5]) | GGT Increase - Activity Score (Hepatotoxicity [6]) | GGT Increase - Index Value (Hepatotoxicity [6]) | GGT Increase - Number of Reports (Hepatotoxicity [6]) |
| --- | --- | --- | --- | --- | --- | --- | --- | --- | --- | --- | --- | --- | --- | --- | --- | --- | --- | --- |
| CC[C@H]1OC(=O)[C@H](C)[C@@H](O[C@H]2C[C@@](C)(OC)[C@@H](O)[C@H](C)O2)[C@H](C)[C@@H](O[C@@H]2O[C@H](C)C[C@H](N(C)C)[C@H]2O)[C@](C)(OC)C[C@@H](C)C(=O)[C@H](C)[C@@H](O)[C@]1(C)O [CLARITHROMYCIN] | 0 | 3 | Inactive | Marginally Active | 3.1 | >= 4 | Marginally Active | 3.8 | >= 4 | Marginally Active | 3.3 | >= 4 | Inactive | 1.4 | >= 4 | Inactive | 1.5 | >= 4 |
| C[C@H]1C[C@H]2[C@@H]3CCC4=CC(=O)C=C[C@]4(C)[C@@]3(F)[C@@H](O)C[C@]2(C)[C@@]1(O)C(=O)CCl [CLOBETASOL] | 0 | 0 | Inactive | Inactive | 0 | < 4 | Inactive | 0 | < 4 | Inactive | 0 | < 4 | Inactive | 0 | < 4 | Inactive | 0 | < 4 |
| CC(C)/N=c1\cc2n(-c3ccc(Cl)cc3)c3ccccc3nc-2cc1Nc1ccc(Cl)cc1 [CLOFAZIMINE] | 4 | 0 | Active | Active | 76.9 | < 4 | Active | 76.9 | < 4 | Active | 102.6 | >= 4 | Inactive | 25.6 | < 4 | Active | 51.3 | < 4 |
| CN(C)CCCN1c2ccccc2CCc2ccc(Cl)cc21 [CLOMIPRAMINE] | 0 | 0 | Inactive | Inactive | 0 | < 4 | Inactive | 0 | < 4 | Inactive | 0 | < 4 | Inactive | 0 | < 4 | Inactive | 0 | < 4 |
